From patent US20230190707A1, “COMPOSITIONS AND METHODS FOR ENHANCING CANCER IMMUNOTHERAPY” (FRED HUTCHINSON CANCER CENTER, priority 2020, published 2023)

What was measured:
[1] = system: MC38 cells; assay: In vitro growth of MC38 cells after MS-023 treatment and washout; assay type: cell-based, mouse; conditions: 5 μM for 96 hours
Description: (§1) Unless otherwise specified, cell lines were treated with splicing inhibitors at the indicated concentrations for 96 hours in vitro, harvested and washed three times with PBS in excess to remove all drug, and then used for downstream analyses and/or subsequent studies, including phenotyping, RNA-seq analyses, continued growth in vitro, or tumor challenge in vivo into syngeneic animals.

[2] = system: MC38 tumors; assay: Therapeutic treatment with splicing compounds and anti-PD1, MC38 tumors; assay type: in vivo, mouse; conditions: three months following tumor implantation
Description: (§5) Animals were subcutaneously engrafted on bilateral flanks with tumor cells (MC38 1×10^6, B16-F10 0.5×10^6 and LLC 0.25×10^6 cells unless otherwise specified) on day 0, and treated continuously with splicing inhibitors (MS-023 50 mg/kg i.p., indisulam 25 mg/kg i.v. or vehicle) daily for 5 of 7 weekly days starting from day +3 of tumor challenge. […] Mice were weighed weekly for weight-based drug dosing.

[3] = Peripheral blood counts after extended treatment; conditions: three weeks, with or without anti-PD1
Description: as §5

[4] = system: asymmetric dimethyl arginines (ADMA); assay: ADMA levels by western blot after MS-023; assay type: cell-based, mouse; conditions: MC38 cells, 5 μM for 96 hours
Description: as §1
Western blotting was performed as per standard techniques. Anti-RBM39 (Atlas Antibodies, Cat. HPA001591 or Bethyl laboratories, Cat. A300-291A) were used to detect RBM39 degradation. ADMA and SDMA levels were determined using antibodies from Cell Signaling Technologies (Cat. 13222S and Cat. 135225). Actin antibody (clone AC-15) was obtained from MilliporeSigma (Cat. A5441-.2ML). Densitometry of RBM39 and actin loading control was performed using ImageJ software in order to calculate RBM39 degradation IC50 values.

[5] = target: H-2K^b (Mus musculus, UniProt P01901); assay: MHC I immunoprecipitation and LC-MS/MS, H-2K^b; assay type: cell-based
H-2K^b, sequence (P01901 22-369 limits assumed): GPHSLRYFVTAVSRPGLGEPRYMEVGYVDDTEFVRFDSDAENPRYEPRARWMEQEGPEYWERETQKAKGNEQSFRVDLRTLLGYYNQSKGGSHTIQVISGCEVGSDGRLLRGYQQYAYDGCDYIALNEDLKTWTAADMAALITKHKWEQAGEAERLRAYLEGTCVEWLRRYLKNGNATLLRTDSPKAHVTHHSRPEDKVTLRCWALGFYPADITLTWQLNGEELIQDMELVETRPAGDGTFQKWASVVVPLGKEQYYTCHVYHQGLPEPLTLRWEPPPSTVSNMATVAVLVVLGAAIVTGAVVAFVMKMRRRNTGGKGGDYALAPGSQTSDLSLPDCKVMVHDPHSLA
Description: (§2) Peptide-MHC complexes were isolated as previously described (Abelin, J. G., et al. (2017). Mass Spectrometry Profiling of HLA-Associated Peptidomes in Mono-allelic Cells Enables More Accurate Epitope Prediction. Immunity 46, 315-326, incorporated herein by reference in its entirety), with the following modifications: anti-mouse H-2D^b (clone B22-249.R1, CedarLane laboratories, Cat. CL9001AP) or H-2K^b (clone Y-3, BioXCell Cat. BE0172) non-covalently linked to GammaBind Plus Sepharose beads were co-incubated with soluble lysates overnight. […]
(§3) Desalted, dried samples enriched for MHC peptides were resolubilized in 8 uL 0.10% TFA and 3 uL were loaded onto a packed-in-emitter 12 cm/75 um ID/3 um C18 particles column (Nikkyo Technos Co., Ltd. Japan). […] Precursor mass spectra were recorded from m/z 300-1500 m/z range at 60,000 resolution. […] MS/MS spectra were recorded at 30,000 resolution and lowest mass set at m/z 110. […] All experiments were recorded in FT-mode.
(§4) Mass spectra from all MHC immunoprecipitations were analyzed using Proteome Discoverer v2.4.1.15, with the following workflow. […]

[6] = system: LLC tumors; assay: Therapeutic treatment with indisulam and anti-PD1, LLC tumors; assay type: in vivo, mouse; conditions: syngeneic C57BL/6; indisulam 25 mg/kg i.v.; anti-PD1 250 μg
Description: Mice were weighed weekly for weight-based drug dosing.

[7] = target: H-2D^b (Mus musculus, UniProt P01899); assay: MHC I immunoprecipitation and LC-MS/MS, H-2D^b; assay type: cell-based
H-2D^b, sequence (P01899 25-362 limits assumed): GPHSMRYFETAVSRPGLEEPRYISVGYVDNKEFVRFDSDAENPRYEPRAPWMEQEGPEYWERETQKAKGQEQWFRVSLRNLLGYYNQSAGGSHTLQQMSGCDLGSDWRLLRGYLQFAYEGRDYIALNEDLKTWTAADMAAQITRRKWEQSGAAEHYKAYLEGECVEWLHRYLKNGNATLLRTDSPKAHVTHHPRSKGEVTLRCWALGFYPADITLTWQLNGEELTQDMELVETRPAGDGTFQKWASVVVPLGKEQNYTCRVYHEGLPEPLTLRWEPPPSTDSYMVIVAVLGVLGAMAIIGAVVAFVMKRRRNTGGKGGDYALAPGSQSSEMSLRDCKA
Description: as §2, §3, §4

[8] = system: MHC I, MHC II, PD-L1, IFNγ receptors, TNF receptors, DR5; assay: Cell-surface marker expression after drug treatment; assay type: cell-based, mouse
[9] = system: B16-F10, MC38, CT26, and LLC cells; assay: Cell growth/viability IC50 (CellTiter-Glo); assay type: cell-based; conditions: Mus musculus; range across B16-F10, MC38, CT26, LLC cells
Description: Cell lines were grown with half-log10 concentrations of the indicated drug in 4 to 8 technical replicates under standard conditions until the control condition (DMSO or vehicle) was confluent by microscopy. For tumor cell lines, viable cells were quantified via the CellTiter-Glo® assay (Promega Cat. G7573) as per manufacturer instructions. For the ex vivo proliferation of T cells, viable cells were instead quantified via flow cytometry using counting beads. The percentage or number of viable cells with drug treatment was calculated relative to DMSO control (as 100%). […] For absolute cell number, Annexin V+, CD25+, and PD1+ flow cytometry data presented in Figure S4, dose-response models and IC50 values were computed using the R language's dre package (Ritz, C., et al. (2015). Dose-Response Analysis Using R. PLoS One 10, e0146021).

[10] = system: B16-F10, MC38, and CT26 cells; assay: In vitro growth after ex vivo indisulam treatment and drug washout; assay type: cell-based, mouse; conditions: ex vivo 1 μM for four days followed by drug washout
Description: as §1

Row | Structure (SMILES) | cell growth in vitro after drug washout [1] | mice alive and tumor-free [2] [%] | lymphocytes, neutrophils, or other peripheral blood counts [3] | asymmetric dimethyl arginines (ADMA) [4] | peptides only recovered from indisulam-treated samples ([5]; B16-F10 cells) | bound peptides arising from mRNA isoforms specifically promoted by indisulam treatment ([5]; intersection with RNA-seq) | growth of LLC tumors in vivo [6] | peptides only recovered from indisulam-treated samples ([7]; B16-F10 cells) | bound peptides arising from mRNA isoforms specifically promoted by indisulam treatment ([7]; intersection with RNA-seq) | cell-surface expression of MHC I, MHC II, PD-L1, or cytokine or death receptors [8] | IC50 [9] [µM] | subsequent cell proliferation or apoptosis [10]
1 | CC(C)Oc1ccc(-c2c[nH]cc2CN(C)CCN)cc1 [MS-023] | minimal effects | 25 | negligible effects | globally reduced |  |  |  |  |  |  |  | 
2 | NS(=O)(=O)c1ccc(S(=O)(=O)Nc2cccc3c(Cl)c[nH]c23)cc1 [indisulam] |  |  |  |  | 366 | 28 | inhibited tumor growth | 518 | 42 | did not change | 2.1 to 73 | minimal effects
